The values that follow come from US8298781B2, “Compositions and methods for characterizing and regulating olfactory sensation” (Duke University, priority 2007, dated 2012).

This assay concerns the target T1, OR7D4 WM (Homo sapiens, UniProt Q8NG98, R88W/T133M).
T1 construct: expressed in transfected cells; host or cells: Hana3A (HEK293T-derived)
T1 sequence (Q8NG98 1-312 R88W/T133M): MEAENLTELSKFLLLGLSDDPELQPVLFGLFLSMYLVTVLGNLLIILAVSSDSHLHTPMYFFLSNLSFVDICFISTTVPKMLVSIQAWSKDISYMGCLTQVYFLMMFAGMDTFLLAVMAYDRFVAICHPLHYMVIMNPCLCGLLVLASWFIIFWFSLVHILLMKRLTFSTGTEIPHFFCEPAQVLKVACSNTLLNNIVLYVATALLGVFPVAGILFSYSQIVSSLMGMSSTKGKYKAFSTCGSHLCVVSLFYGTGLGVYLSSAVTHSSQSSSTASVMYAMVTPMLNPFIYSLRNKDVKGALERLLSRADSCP
In words: Luciferase assay of odorant receptor activation in Hana3A cells, OR7D4 WM. It is filed as cell-based. As to conditions: variant R88W/T133M, relative to OR7D4 RT. The source says:
Heterologous expression of human odorant receptors. 423 human odorant receptors including 337 predicted functional receptors were cloned. Odorant receptors that contained the first 20 amino acid of human rhodopsin (see, e.g., Krautwurst, D., et al., Cell 95, 917-926 (1998); herein incorporated by reference in its entirety) in pCl (Promega) were expressed in the Hana3A cell line along with a short form of mRTP1, RTP1S, (M37 to the C-terminal end), which enhanced functional expression of the odorant receptors. For immunocytochemistry, cells were fixed, permeabilized and incubated with monoclonal anti-rhodopsin antibody, 4D2 (see, e.g., Laird, D. W., et al., Invest Opthalmol Vis Sci 29.419428 (1988); herein incorporated by reference in its entirety), followed by Cy3-conjugated donkey anti-mouse IgG (Jackson Immunologicals). […]
Luciferase assay and data analysis. […] Luminescence was measured using Wallac Victor 1420 (Perkin-Elmer). Normalized luciferase activity was calculated by the formula [luc(N)-luc(lowest)]/luc(highest)/RL (N) where luc(N)=luminescence of luciferase of a certain well; luc(lowest)=lowest luminescence of luciferase of a plate or a set of plates; luc(highest)=highest luminescence of luciferase of a plate or a set of plates; RL(N)=luminescence of Renilla luciferase of a certain well. Data was analyzed with Microsoft Excel and GraphPad Prism 4.

As to `C[C@@]12C=CC[C@H]1[C@@H]1CCC3=CC(=O)CC[C@]3(C)[C@H]1CC2` [androstadienone, androsta-4,16-dien-3-one], the “function of OR7D4 WM in vitro in the presence of the odor” value is on record as “severely impaired olfactory function”.

With `C[C@]12CCC(=O)C[C@@H]1CC[C@@H]1[C@@H]2CC[C@]2(C)C=CC[C@@H]12` [androstenone, 5α-androst-16-en-3-one], the “function of OR7D4 WM in vitro in the presence of the odor” value is reported as “severely impaired olfactory function”.
